Biological target: Cathepsin B (Homo sapiens, UniProt P07858)
Test: Inhibition of cathepsin B mediated osteoporotic activity

- IC50: 2.11 µM
SMILES: COc1cc2c([nH]c3c4c(c(C)cc32)OC(C)(C)C=C4)c(-c2c(O)c(OC)cc3c2[nH]c2c4c(c(C)cc23)OC(C)(C)C=C4)c1O

Source: ChEMBL document CHEMBL1150683, “Two new carbazole alkaloids from Murraya koenigii” (J Nat Prod, 2003)
